Results: patent publication US11319324B2, “Pyrazolo-pyrrolo-pyrimidine-dione derivatives as P2X3 inhibitors” (Bayer Aktiengesellschaft, priority 2017, dated 2022)

Assays:
Format in all cases: cell-based
[1] = molecular target: T1, human P2X2/3 receptors (Homo sapiens, UniProt P56373+Q9UBL9); assay: Intracellular calcium measurement, antagonist activity at human P2X2/3 receptors (hP2X23 1321N1), Fluo8; details: for IC50: column 4); 1321N1 cells, human P2X2/3, Fluo8, agonist ATP at EC50; read-out: 4) hP2X2/3 IC50 [nM] (1321N1); for hP2X23/hP2X3* Selectivity (1321N1): ratio of column 4) hP2X2/3 to column 3) hP2X3, 1321N1
T1 construct: expressed in transfected cells; host or cells: human astrocytoma 1321N1 (1312N1 [sic])
T1 sequence (P56373 1-397): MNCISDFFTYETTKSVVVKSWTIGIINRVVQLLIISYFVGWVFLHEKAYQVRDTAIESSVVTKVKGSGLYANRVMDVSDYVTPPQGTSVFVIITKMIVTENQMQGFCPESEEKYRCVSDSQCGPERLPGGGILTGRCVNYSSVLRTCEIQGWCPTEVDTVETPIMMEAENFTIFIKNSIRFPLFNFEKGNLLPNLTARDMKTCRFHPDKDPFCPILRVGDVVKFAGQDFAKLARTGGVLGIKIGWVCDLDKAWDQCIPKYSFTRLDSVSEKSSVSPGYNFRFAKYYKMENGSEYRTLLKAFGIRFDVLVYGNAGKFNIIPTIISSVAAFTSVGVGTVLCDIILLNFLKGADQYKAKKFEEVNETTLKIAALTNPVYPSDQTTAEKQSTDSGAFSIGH
T1 sequence (Q9UBL9 1-471): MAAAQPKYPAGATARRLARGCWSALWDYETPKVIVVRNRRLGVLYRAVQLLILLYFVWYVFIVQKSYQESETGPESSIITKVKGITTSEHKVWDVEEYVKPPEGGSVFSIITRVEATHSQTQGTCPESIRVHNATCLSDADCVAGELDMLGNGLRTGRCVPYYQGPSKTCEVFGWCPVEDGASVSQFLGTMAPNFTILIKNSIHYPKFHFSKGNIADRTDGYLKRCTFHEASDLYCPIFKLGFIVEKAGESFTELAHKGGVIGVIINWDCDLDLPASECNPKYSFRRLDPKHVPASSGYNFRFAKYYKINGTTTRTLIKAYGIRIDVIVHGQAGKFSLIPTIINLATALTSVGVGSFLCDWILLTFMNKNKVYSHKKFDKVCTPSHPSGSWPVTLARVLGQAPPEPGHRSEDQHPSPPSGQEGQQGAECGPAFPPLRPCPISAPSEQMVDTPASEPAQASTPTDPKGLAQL
Outline: (§1)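 Inhibition of ATP-triggered Ca2+ transients is measured in 1321N1 cells expressing P2X3 homotrimers or P2X2/3 heterotrimers.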

[2] = molecular target: T2, human P2X3 receptor (Homo sapiens, UniProt P56373); assay: Intracellular calcium measurement to assess antagonist activity at human P2X3 receptors (hP2X3 CHO), photina luminescence; set-up: expressed in transfected cells; host or cells: Chinese hamster ovary (CHO) cells; details: column 2), CHO cells, agonist α,β-methylene-ATP at EC50
T2 sequence (P56373 1-397): T1 sequence (P56373 1-397)
Outline: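 CHO cells stably expressing human P2X3 and mitochondrial photina, plated the day before at 30 °C, then loaded 3 h at 37 °C in 2 mM Ca-tyrode buffer with 5 μg/ml coelenterazine. Agonist-evoked calcium luminescence read immediately; inhibition seen as signal decrease.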

[3] = molecular target: T2, human P2X3 receptor; assay: Intracellular calcium measurement, antagonist activity at human P2X3 receptors (hP2X3 1321N1), Fluo8; set-up: expressed in transfected cells; host or cells: human astrocytoma 1321N1 (1312N1 [sic]); details: column 3); 1321N1 cells, human P2X3, Fluo8, agonist ATP at EC50
Outline: as §1

## CC(C)N1Cc2c(n(CC(=O)Nc3ccc(F)cn3)c3cc(Br)nn3c2=O)C1=O [Example 75, 2-[2-bromo-5,8-dioxo-6-(propan-2-yl)-5,6,7,8-tetrahydro-4H-pyrazolo[1,5-a]pyrrolo[3,4-d]pyrimidin-4-yl]-N-(5-fluoropyridin-2-yl)acetamide]
[1]
  IC50: 4400 nM
  hP2X23/hP2X3* Selectivity (1321N1): 50
[2]
  IC50: 29 nM
[3]
  IC50: 89 nM

## CCc1cc2n(CC(=O)Nc3ccc(F)cn3)c3c(c(=O)n2n1)CN(C1CCN(C(=O)OC(C)(C)C)CC1)C3=O [Example 76]
[1]
  IC50: > 21500 nM
  hP2X23/hP2X3* Selectivity (1321N1): >13
[2]
  IC50: 470 nM
[3]
  IC50: 1670 nM

## CCc1cc2n(CC(=O)Nc3ccc(F)cn3)c3c(c(=O)n2n1)CN(C1CCN(C(=O)OC(C)(C)C)C1)C3=O (stereo not shown) [Example 78]
[1]
  IC50: 6100 nM
  hP2X23/hP2X3* Selectivity (1321N1): 98
[2]
  IC50: 21 nM
[3]
  IC50: 62 nM

## CC(C)N1Cc2c(n(CC(=O)Nc3ccc(F)cn3)c3cc(C(=O)NC4CC4)nn3c2=O)C1=O [Example 79]
[1]
  IC50: 4800 nM
  hP2X23/hP2X3* Selectivity (1321N1): 79
[2]
  IC50: 94 nM
[3]
  IC50: 61 nM

## CCc1cc2n(CC(=O)Nc3ccc(F)cn3)c3c(c(=O)n2n1)CN(CC1CCN(C(=O)OC(C)(C)C)C1)C3=O (stereo not shown) [Example 80]
[1]
  IC50: 1950 nM
  hP2X23/hP2X3* Selectivity (1321N1): 31
[2]
  IC50: 32 nM
[3]
  IC50: 63 nM

## CCc1cc2n(CC(=O)Nc3ccc(F)cn3)c3c(c(=O)n2n1)CN(CC1CCCN1C(=O)OC(C)(C)C)C3=O (stereo not shown) [Example 81]
[1]
  IC50: 2600 nM
  hP2X23/hP2X3* Selectivity (1321N1): 61
[2]
  IC50: 103 nM
[3]
  IC50: 42 nM

## CC(C)Cc1cc2n(CC(=O)Nc3ccc(F)cn3)c3c(c(=O)n2n1)CN(C(C)C)C3=O [Example 82]
[1]
  IC50: 1870 nM
  hP2X23/hP2X3* Selectivity (1321N1): 239
[2]
  IC50: 6 nM
[3]
  IC50: 8 nM

## CCc1cc2n(CC(=O)Nc3ccc(F)cn3)c3c(c(=O)n2n1)CN(CC1CCOCC1)C3=O [Example 83]
[1]
  IC50: > 32000 nM
  hP2X23/hP2X3* Selectivity (1321N1): >48
[2]
  IC50: 370 nM
[3]
  IC50: 665 nM

## CC(C)N1Cc2c(n(CC(=O)Nc3ccc(F)cn3)c3cc(C4CCCCC4)nn3c2=O)C1=O [Example 85]
[1]
  IC50: 1950 nM
  hP2X23/hP2X3* Selectivity (1321N1): 328
[2]
  IC50: 4 nM
[3]
  IC50: 6 nM

## CCc1cc2n(CC(=O)Nc3ccc(F)cn3)c3c(c(=O)n2n1)CN(C[C@H]1CN(C(=O)OC(C)(C)C)CCO1)C3=O [Example 86, tert-butyl(2S)-2-{[2-ethyl-4-{2-[(5-fluoropyridin-2-yl)amino]-2-oxoethyl}-5,8-dioxo-5,8-dihydro-4H-pyrazolo[1,5-a]pyrrolo[3,4-d]pyrimidin-6(7H)-yl]methyl}morpholine-4-carboxylate]
[1]
  IC50: 2350 nM
  hP2X23/hP2X3* Selectivity (1321N1): 17
[2]
  IC50: 70 nM
[3]
  IC50: 140 nM

## CC(C)N1Cc2c(n(CC(=O)Nc3ccc(F)cn3)c3cc(C(C)(C)O)nn3c2=O)C1=O [Example 88]
[1]
  IC50: > 23500 nM
  hP2X23/hP2X3* Selectivity (1321N1): >423
[2]
  IC50: 115 nM
[3]
  IC50: 56 nM

## CCc1cc2n(CC(=O)Nc3ccc(F)cn3)c3c(c(=O)n2n1)CN(CC1CCN(C(=O)OC(C)(C)C)CC1)C3=O [Example 89]
[1]
  IC50: 6550 nM
  hP2X23/hP2X3* Selectivity (1321N1): 49
[2]
  IC50: 64 nM
[3]
  IC50: 135 nM

## CCc1cc2n(CC(=O)Nc3ccc(F)cn3)c3c(c(=O)n2n1)CN(C[C@@H]1CN(C(=O)OC(C)(C)C)CCO1)C3=O [Example 90, Tert-butyl(2R)-2-{[2-ethyl-4-{2-[(5-fluoropyridin-2-yl)amino]-2-oxoethyl}-5,8-dioxo-5,8-dihydro-4H-pyrazolo[1,5-a]pyrrolo[3,4-d]pyrimidin-6(7H)-yl]methyl}morpholine-4-carboxylate]
[1]
  IC50: 3450 nM
  hP2X23/hP2X3* Selectivity (1321N1): 27
[2]
  IC50: 94 nM
[3]
  IC50: 130 nM

## CC(C)N1Cc2c(n(CC(=O)Nc3ccc(F)cn3)c3cc(NC(=O)OC(C)(C)C)nn3c2=O)C1=O [Example 91]
[1]
  IC50: 1900 nM
  hP2X23/hP2X3* Selectivity (1321N1): 58
[2]
  IC50: 27 nM
[3]
  IC50: 33 nM

## O=C(Cn1c2c(c(=O)n3nc(C4CCOCC4)cc13)CN(C1CCCC1)C2=O)Nc1ccc(F)cn1 [Example 92]
[1]
  IC50: 5050 nM
  hP2X23/hP2X3* Selectivity (1321N1): 192
[2]
  IC50: 64 nM
[3]
  IC50: 26 nM

## CC(C)Cc1cc2n(CC(=O)Nc3ccc(F)cn3)c3c(c(=O)n2n1)CN(C1CCCC1)C3=O [Example 93]
[1]
  IC50: 2350 nM
  hP2X23/hP2X3* Selectivity (1321N1): 295
[2]
  IC50: 6 nM
[3]
  IC50: 8 nM

## CCc1cc2n(CC(=O)Nc3ccc(F)cn3)c3c(c(=O)n2n1)CN(C1CCOCC1)C3=O [Example 94]
[1]
  IC50: > 23000 nM
  hP2X23/hP2X3* Selectivity (1321N1): >56
[2]
  IC50: 290 nM
[3]
  IC50: 410 nM

## CCc1cc2n(CC(=O)Nc3ccc(F)cn3)c3c(c(=O)n2n1)CN(CCN1CCOCC1)C3=O [Example 95]
[1]
  IC50: > 22500 nM
  hP2X23/hP2X3* Selectivity (1321N1): >82
[2]
  IC50: 178 nM
[3]
  IC50: 273 nM

## CC(C)N1Cc2c(n(CC(=O)Nc3ccc(F)cn3)c3cc(CC4CCOCC4)nn3c2=O)C1=O [Example 96]
[1]
  IC50: 8800 nM
  hP2X23/hP2X3* Selectivity (1321N1): 345
[2]
  IC50: 20 nM
[3]
  IC50: 26 nM

## COCCN1Cc2c(n(CC(=O)Nc3ccc(F)cn3)c3cc(C4CCOCC4)nn3c2=O)C1=O [Example 97]
[1]
  IC50: 9750 nM
  hP2X23/hP2X3* Selectivity (1321N1): 207
[2]
  IC50: 66 nM
[3]
  IC50: 47 nM

## COCCN1Cc2c(n(CC(=O)Nc3ccc(F)cn3)c3cc(CC(C)C)nn3c2=O)C1=O [Example 98]
[1]
  IC50: 2600 nM
  hP2X23/hP2X3* Selectivity (1321N1): 211
[2]
  IC50: 8 nM
[3]
  IC50: 12 nM

## CCc1cc2n(CC(=O)Nc3ccc(F)cn3)c3c(c(=O)n2n1)CN(C(COC)COC)C3=O [Example 99]
[1]
  IC50: 9100 nM
  hP2X23/hP2X3* Selectivity (1321N1): 607
[2]
  IC50: 21 nM
[3]
  IC50: 15 nM

## COCCN1Cc2c(n(CC(=O)Nc3ccc(F)cn3)c3cc(C4CC4)nn3c2=O)C1=O [Example 100]
[1]
  IC50: 4850 nM
  hP2X23/hP2X3* Selectivity (1321N1): 243
[2]
  IC50: 52 nM
[3]
  IC50: 20 nM

## COC[C@H](C)N1Cc2c(n(CC(=O)Nc3ccc(F)cn3)c3cc(C4CC4)nn3c2=O)C1=O [Example 101]
[1]
  IC50: 6950 nM
  hP2X23/hP2X3* Selectivity (1321N1): 535
[2]
  IC50: 28 nM
[3]
  IC50: 13 nM

## COC[C@H](C)N1Cc2c(n(CC(=O)Nc3ccc(F)cn3)c3cc(Cl)nn3c2=O)C1=O [Example 102]
[1]
  IC50: > 22500 nM
  hP2X23/hP2X3* Selectivity (1321N1): >278
[2]
  IC50: 114 nM
[3]
  IC50: 81 nM
